Starred links: 1 amine or outer side, 2 acyl side, 3 side chain; linkers in the order of their positions; H or OH if unused. Non-standard residues stand in square brackets, D forms with d. Residues, ends and D or L forms follow the SMILES beside them. X6 = O=C([C@H](Cc1ccc(O)cc1)NC(=S)[C@H]1CCCN1[*:1])[*:2]; X5 = CC(C)C[C@H](NC(=S)[C@H](CC(C)C)N[*:1])C(=O)[*:2]; NMeY = CN[C@@H](Cc1ccc(O)cc1)C(=O)O; NMeL = CN[C@@H](CC(C)C)C(=O)O; dNMeL = CN[C@H](CC(C)C)C(=O)O
Tests used:
physchem = details: pH 7.4
in vitro [1] = details: pig, simulated intestinal fluid
Protocol: We next assessed the stability of the macrocyclic peptides in Simulated Intestinal Fluid (SIF)[42], comprising of pancreatin, which is a mixture of several proteases produced by the exocrine cells of the porcine pancreas.
(§1) A stability assessment of the peptides was done in simulated gastric (SGF) and intestinal (SIF) fluids and human liver microsomes. The degradation kinetics of the aliquoted samples at desired time points were analyzed through RP-HPLC.

in vitro [2] = details: both, human, plasma
[3] = PAMPA passive permeability; type: in vitro ADME;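 also: passive permeability across an artificial membrane in 96-well pre-coated PAMPA plates, which lack transporters and efflux systems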
Protocol: Encouraged by this, the passive permeability of the analogs was evaluated using an artificial membrane (PAMPA), which measures permeability of compounds in the absence of transporters and efflux systems[32].
96-well BD Corning® pre-coated PAMPA plates were used following the supplier’s protocol, details in Supplementary Information.

pepsin = pepsin (Sus scrofa, UniProt P00791); test: in vitro; details: simulated gastric fluid, pH 1.2
Protocol: as §1

in vitro [4] = details: human, microsomes
Protocol: as §1

in vitro [5] = details: both, human, plasma; remark: listed apart in the source
[6] = type: physicochemical
[7] = type: physicochemical; remark: listed apart in the source

Sequence of pepsin (P00791 60-385): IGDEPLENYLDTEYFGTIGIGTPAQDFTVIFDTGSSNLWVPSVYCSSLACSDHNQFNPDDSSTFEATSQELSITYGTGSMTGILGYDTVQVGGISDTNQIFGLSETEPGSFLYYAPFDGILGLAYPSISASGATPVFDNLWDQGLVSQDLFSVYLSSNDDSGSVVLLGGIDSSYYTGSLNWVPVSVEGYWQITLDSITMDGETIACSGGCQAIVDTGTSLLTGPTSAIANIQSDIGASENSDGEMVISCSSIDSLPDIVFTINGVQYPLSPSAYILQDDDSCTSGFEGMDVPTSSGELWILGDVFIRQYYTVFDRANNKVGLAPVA
Protocol for human liver microsomes: as §1

SMILES: CC(C)C[C@@H]1NC(=O)[C@@H](CC(C)C)N(C)C(=O)[C@H](CC(C)C)NC(=O)[C@H](Cc2ccc(O)cc2)NC(=O)[C@H]2CCCN2C(=O)[C@H](CC(C)C)NC1=O [10g] (cyclo(LL[dP]YL[dNMeL]))
- logD (physchem): 1.01
- half-life (in vitro [1]): 0.333 h
- remaining at 10 min (in vitro [1]): 67%
- remaining at 0.5 h (in vitro [1]): 41%
- remaining at 1 h (in vitro [1]): 22%
- remaining at 2 h (in vitro [1]): 10%
- remaining at 4 h (in vitro [1]): 0%
- remaining at 8 h (in vitro [1]): 0%
- remaining at 12 h (in vitro [1]): 0%
- half-life (in vitro [2]): 15 h
- remaining at 2 h (in vitro [2]): 92%
- remaining at 4 h (in vitro [2]): 83%
- remaining at 8 h (in vitro [2]): 69%
- remaining at 16 h (in vitro [2]): 51%
- remaining at 24 h (in vitro [2]): 28%
- remaining at 48 h (in vitro [2]): 22%
- remaining at 72 h (in vitro [2]): 13%
- Half lives (human liver microsomes): 16.8
- Papp ([3]; Pe Avg): 2.75 ×10⁻⁶ cm/s
- half-life (pepsin): 0.325 h
- remaining at 2 min (pepsin): 85%
- remaining at 10 min (pepsin): 65%
- remaining at 20 min (pepsin): 45%
- remaining at 0.5 h (pepsin): 38%
- remaining at 1 h (pepsin): 24%
- remaining at 2 h (pepsin): 9%
- remaining at 4 h (pepsin): 0%
- remaining at 8 h (pepsin): 0%
- remaining at 12 h (pepsin): 0%
- microsomal CLint (in vitro [4]): 83 µL/min/mg
- remaining at 2 min (in vitro [4]): 89%
- remaining at 10 min (in vitro [4]): 67%
- remaining at 20 min (in vitro [4]): 41%
- remaining at 0.5 h (in vitro [4]): 25%
- remaining at 0.75 h (in vitro [4]): 16%
- remaining at 1 h (in vitro [4]): 8%
- fraction unbound (in vitro [5]): 0.35

SMILES: CC(C)C[C@@H]1NC(=O)[C@H](Cc2ccc(O)cc2)NC(=S)[C@H]2CCCN2C(=O)[C@H](CC(C)C)NC(=O)[C@H](CC(C)C)NC(=O)[C@@H](CC(C)C)NC1=O [10d] (cyclo(LL[X6]L[dL]))
- logD (physchem): 1.24
- half-life (in vitro [1]): 1.35 h
- remaining at 10 min (in vitro [1]): 79.4%
- remaining at 0.5 h (in vitro [1]): 62.8%
- remaining at 1 h (in vitro [1]): 56.2%
- remaining at 2 h (in vitro [1]): 38.5%
- remaining at 4 h (in vitro [1]): 31.9%
- remaining at 8 h (in vitro [1]): 19.6%
- remaining at 12 h (in vitro [1]): 11.2%
- remaining at 24 h (in vitro [1]): 5.8%
- half-life (in vitro [2]): 20 h
- remaining at 1 h (in vitro [2]): 86%
- remaining at 3 h (in vitro [2]): 81%
- remaining at 5 h (in vitro [2]): 78%
- remaining at 7 h (in vitro [2]): 63%
- remaining at 9 h (in vitro [2]): 59%
- remaining at 12 h (in vitro [2]): 64%
- remaining at 24 h (in vitro [2]): 46%
- remaining at 36 h (in vitro [2]): 35%
- remaining at 48 h (in vitro [2]): 31%
- remaining at 60 h (in vitro [2]): 21%
- remaining at 72 h (in vitro [2]): 19%
- Half lives (human liver microsomes): 29.5
- Pe Avg [3]: 4.2 ×10⁻⁶ cm/s
- Pe set1 [3]: 2.03 ×10⁻⁶ cm/s
- Pe set2 [3]: 5.97 ×10⁻⁶ cm/s
- Pe set3 [3]: 4.7 ×10⁻⁶ cm/s
- Papp ([3]; Pe Avg): 4.2 ×10⁻⁶ cm/s
- % solubility [6]: 22%
- half-life (pepsin): 0.4 h
- remaining at 5 min (pepsin): 75%
- remaining at 10 min (pepsin): 66%
- remaining at 20 min (pepsin): 56%
- remaining at 0.5 h (pepsin): 44%
- remaining at 1 h (pepsin): 37%
- remaining at 2 h (pepsin): 29%
- remaining at 4 h (pepsin): 21%
- remaining at 8 h (pepsin): 16%
- remaining at 12 h (pepsin): 6%
- remaining at 24 h (pepsin): 2%
- microsomal CLint (in vitro [4]): 47 µL/min/mg
- remaining at 5 min (in vitro [4]): 96%
- remaining at 10 min (in vitro [4]): 71%
- remaining at 20 min (in vitro [4]): 61%
- remaining at 0.5 h (in vitro [4]): 50%
- remaining at 0.75 h (in vitro [4]): 40%
- remaining at 1 h (in vitro [4]): 20%
- logD heptane ethylene glycol [7]: 0.72
- fraction unbound (in vitro [5]): 0.03

SMILES: C[C@@H](O)[C@@H]1NC(=O)[C@H](CCCCN)NC(=O)[C@@H](Cc2c[nH]c3ccccc23)NC(=S)[C@H](Cc2ccccc2)NC(=O)[C@@H]2CCCN2C(=O)[C@H](Cc2ccccc2)NC1=O [13f]
- logD (physchem): -0.93
- half-life (in vitro [2]): 16 h
- Papp ([3]; Pe): 1.51 ×10⁻⁶ cm/s
- logD heptane ethylene glycol [7]: -0.91
- fraction unbound (in vitro [5]): 0.05

SMILES: CC(C)C[C@@H]1NC(=O)[C@H](Cc2ccc(O)cc2)NC(=O)[C@H]2CCCN2C(=O)[C@H](CC(C)C)N(C)C(=O)[C@H](CC(C)C)NC(=O)[C@@H](CC(C)C)NC1=O [10i] (cyclo(L[NMeL][dP]YL[dL]))
- logD (physchem): 1.11
- half-life (in vitro [1]): 1.83 h
- remaining at 10 min (in vitro [1]): 90%
- remaining at 0.5 h (in vitro [1]): 81%
- remaining at 1 h (in vitro [1]): 68%
- remaining at 2 h (in vitro [1]): 46%
- remaining at 4 h (in vitro [1]): 32%
- remaining at 8 h (in vitro [1]): 6%
- remaining at 12 h (in vitro [1]): 3%
- half-life (in vitro [2]): 19 h
- remaining at 2 h (in vitro [2]): 92%
- remaining at 4 h (in vitro [2]): 83%
- remaining at 8 h (in vitro [2]): 74%
- remaining at 16 h (in vitro [2]): 58%
- remaining at 24 h (in vitro [2]): 38%
- remaining at 48 h (in vitro [2]): 26%
- remaining at 72 h (in vitro [2]): 4%
- Half lives (human liver microsomes): 12.6
- Papp ([3]; Pe Avg): 3.2 ×10⁻⁶ cm/s
- half-life (pepsin): 0.292 h
- remaining at 2 min (pepsin): 86%
- remaining at 10 min (pepsin): 58%
- remaining at 20 min (pepsin): 47%
- remaining at 0.5 h (pepsin): 30%
- remaining at 1 h (pepsin): 17%
- remaining at 2 h (pepsin): 11%
- remaining at 4 h (pepsin): 5%
- remaining at 8 h (pepsin): 2.5%
- remaining at 12 h (pepsin): 1%
- microsomal CLint (in vitro [4]): 113 µL/min/mg
- remaining at 2 min (in vitro [4]): 93%
- remaining at 10 min (in vitro [4]): 54%
- remaining at 20 min (in vitro [4]): 53%
- remaining at 0.5 h (in vitro [4]): 19%
- remaining at 0.75 h (in vitro [4]): 12%
- remaining at 1 h (in vitro [4]): 2.73%
- fraction unbound (in vitro [5]): 0.38

SMILES: CC(C)C[C@@H]1NC(=O)[C@@H](CC(C)C)NC(=O)[C@H](CC(C)C)NC(=O)[C@H](Cc2ccc(O)cc2)N(C)C(=O)[C@H]2CCCN2C(=O)[C@H](CC(C)C)NC1=O [10j] (cyclo(LL[dP][NMeY]L[dL]))
- logD (physchem): 0.98
- half-life (in vitro [1]): 0.583 h
- remaining at 10 min (in vitro [1]): 70%
- remaining at 0.5 h (in vitro [1]): 58%
- remaining at 1 h (in vitro [1]): 38%
- remaining at 2 h (in vitro [1]): 21%
- remaining at 4 h (in vitro [1]): 4.54%
- remaining at 8 h (in vitro [1]): 0.525%
- remaining at 12 h (in vitro [1]): 0%
- half-life (in vitro [2]): 11 h
- remaining at 2 h (in vitro [2]): 75%
- remaining at 4 h (in vitro [2]): 61%
- remaining at 8 h (in vitro [2]): 56%
- remaining at 16 h (in vitro [2]): 38%
- remaining at 24 h (in vitro [2]): 25%
- remaining at 48 h (in vitro [2]): 9%
- remaining at 72 h (in vitro [2]): 4%
- Half lives (human liver microsomes): 28.7
- Papp ([3]; Pe Avg): 4.59 ×10⁻⁶ cm/s
- half-life (pepsin): 0.367 h
- remaining at 2 min (pepsin): 86%
- remaining at 10 min (pepsin): 78%
- remaining at 20 min (pepsin): 59%
- remaining at 0.5 h (pepsin): 32%
- remaining at 1 h (pepsin): 10%
- remaining at 2 h (pepsin): 1%
- remaining at 4 h (pepsin): 0%
- remaining at 8 h (pepsin): 0%
- remaining at 12 h (pepsin): 0%
- microsomal CLint (in vitro [4]): 49 µL/min/mg
- remaining at 2 min (in vitro [4]): 91%
- remaining at 10 min (in vitro [4]): 77%
- remaining at 20 min (in vitro [4]): 73%
- remaining at 0.5 h (in vitro [4]): 46%
- remaining at 0.75 h (in vitro [4]): 35%
- remaining at 1 h (in vitro [4]): 9%
- fraction unbound (in vitro [5]): 0.21

SMILES: CC(C)C[C@@H]1NC(=O)[C@H](Cc2ccc(O)cc2)NC(=O)[C@H]2CCCN2C(=O)[C@H](CC(C)C)NC(=S)[C@H](CC(C)C)NC(=O)[C@@H](CC(C)C)NC1=O [10b] (cyclo(L[dL][X5][dP]Y))
- logD (physchem): 1.42
- half-life (in vitro [1]): 1.6 h
- remaining at 10 min (in vitro [1]): 71.7%
- remaining at 0.5 h (in vitro [1]): 53.6%
- remaining at 1 h (in vitro [1]): 47.1%
- remaining at 2 h (in vitro [1]): 39%
- remaining at 4 h (in vitro [1]): 32.1%
- remaining at 8 h (in vitro [1]): 26.6%
- remaining at 12 h (in vitro [1]): 16.6%
- remaining at 24 h (in vitro [1]): 10.3%
- half-life (in vitro [2]): 23 h
- remaining at 1 h (in vitro [2]): 91%
- remaining at 3 h (in vitro [2]): 85%
- remaining at 5 h (in vitro [2]): 80%
- remaining at 7 h (in vitro [2]): 76%
- remaining at 9 h (in vitro [2]): 74%
- remaining at 12 h (in vitro [2]): 59%
- remaining at 24 h (in vitro [2]): 47%
- remaining at 36 h (in vitro [2]): 33%
- remaining at 48 h (in vitro [2]): 25%
- remaining at 60 h (in vitro [2]): 15%
- remaining at 72 h (in vitro [2]): 7%
- Half lives (human liver microsomes): 19.0
- Pe Avg [3]: 4.3 ×10⁻⁶ cm/s
- Pe set1 [3]: 4.84 ×10⁻⁶ cm/s
- Pe set2 [3]: 3.05 ×10⁻⁶ cm/s
- Pe set3 [3]: 5.14 ×10⁻⁶ cm/s
- Papp ([3]; Pe Avg): 4.3 ×10⁻⁶ cm/s
- % solubility [6]: 26%
- half-life (pepsin): 0.283 h
- remaining at 5 min (pepsin): 72%
- remaining at 10 min (pepsin): 57%
- remaining at 20 min (pepsin): 47%
- remaining at 0.5 h (pepsin): 38%
- remaining at 1 h (pepsin): 33%
- remaining at 2 h (pepsin): 27%
- remaining at 4 h (pepsin): 23%
- remaining at 8 h (pepsin): 17%
- remaining at 12 h (pepsin): 10%
- remaining at 24 h (pepsin): 5%
- microsomal CLint (in vitro [4]): 73 µL/min/mg
- remaining at 5 min (in vitro [4]): 85%
- remaining at 10 min (in vitro [4]): 65%
- remaining at 20 min (in vitro [4]): 49%
- remaining at 0.5 h (in vitro [4]): 34%
- remaining at 0.75 h (in vitro [4]): 28%
- remaining at 1 h (in vitro [4]): 15%
- logD heptane ethylene glycol [7]: 0.62
- fraction unbound (in vitro [5]): 0.31

From paper PMC10539501 (Nature Communications, 2023)
